The compounds below were run against T1, GCase (Homo sapiens, UniProt P04062) (assay: activation of GCase in a live cell PFB assay in HELA cells). Settings: EC50 given as range classes.
T1 construct: endogenous in cells; host or cells: HeLa cells
T1 sequence (P04062 40-536): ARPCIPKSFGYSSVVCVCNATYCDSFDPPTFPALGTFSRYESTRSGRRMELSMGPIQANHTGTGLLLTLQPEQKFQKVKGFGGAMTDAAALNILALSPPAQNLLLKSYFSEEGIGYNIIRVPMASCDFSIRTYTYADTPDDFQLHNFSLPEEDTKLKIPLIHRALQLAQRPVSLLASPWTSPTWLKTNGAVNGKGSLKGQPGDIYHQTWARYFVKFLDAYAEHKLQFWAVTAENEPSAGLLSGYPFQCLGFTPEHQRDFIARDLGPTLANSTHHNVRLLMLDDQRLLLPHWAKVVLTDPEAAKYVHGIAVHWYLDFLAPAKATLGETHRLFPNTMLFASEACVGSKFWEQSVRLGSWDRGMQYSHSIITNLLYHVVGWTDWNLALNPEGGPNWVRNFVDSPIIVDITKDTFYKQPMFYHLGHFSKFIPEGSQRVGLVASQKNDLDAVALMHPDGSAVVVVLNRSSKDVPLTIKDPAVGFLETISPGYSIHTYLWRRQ
Type: cell-based
Protocol: Exemplary compounds were evaluated for activation of GCase in a live cell PFB assay in HELA cells (essentially as described in Ysselstein et al., “LRRK2 kinase activity regulates lysosomal glucocerebrosidase in neurons derived from Parkinson's disease patients” Nature Communications (2019) 10:5570). […] EC50 ranges: A: <10 μM; B: >10-50 μM; C: >50-100 μM; D: >100 μM.

| EC50 | Compound |
| --- | --- |
| > 100 µM | FC(F)(F)c1cc(N2CC3(CCN(c4cnc5cnn(C6COC6)c5n4)C3)C2)ccn1 [Cmpd 987] |
| < 10 µM | Cn1c(N2CCC3(CN(c4cnc(C(F)(F)F)nc4)C3)C2)nc2c(cnn2CC(F)F)c1=O [Cmpd 988] |
| > 100 µM | Cn1c(N2CCC3(CN(c4ccnc(C(F)(F)F)c4)C3)C2)nc2c(cnn2CC(F)F)c1=O [Cmpd 989] |
| < 10 µM | CCn1ncc2c(=O)n(C)c(N3CCC4(CN(c5cnc(C(F)(F)F)nc5)C4)C3)nc21 [Cmpd 990] |
| < 10 µM | Cn1c(N2CCC3(CN(c4ccnc(C(F)(F)F)n4)C3)C2)nc2c(cnn2CC(F)F)c1=O [Cmpd 991] |
| 10 to 50 µM | Cn1c(N2CCC3(CN(c4ccnc(C(F)(F)F)c4)C3)C2=O)nc2c(cnn2CC(F)F)c1=O [Cmpd 992] |
| 50 to 100 µM | Cn1c(N2CCC3(CN(c4ccnc(C(F)(F)F)c4)C3)C2)nc2c(cnn2C2COC2)c1=O [Cmpd 993] |
| < 10 µM | Cc1nn(CC(F)F)c2nc(N3CCC4(CN(c5ccnc(C(F)(F)F)c5)C4)C3)n(C)c(=O)c12 [Cmpd 994] |
| < 10 µM | Cc1nn(C2COC2)c2nc(N3CCC4(CN(c5ccnc(C(F)(F)F)c5)C4)C3)n(C)c(=O)c12 [Cmpd 995] |
| 10 to 50 µM | Cn1c(N2CCC3(CN(c4ccc(C(F)(F)F)cn4)C3)C2)nc2c(cnn2CC(F)F)c1=O [Cmpd 996] |
| < 10 µM | Cn1c(N2CCC3(CN(c4ccc(C(F)(F)F)nc4)C3)C2)nc2c(cnn2CC(F)F)c1=O [Cmpd 997] |
| 10 to 50 µM | Cn1c(N2CC3(CC2=O)CN(c2ccnc(C(F)(F)F)c2)C3)nc2c(cnn2CC(F)F)c1=O [Cmpd 998] |
| 10 to 50 µM | O=C1N(c2ncc3cnn(CC(F)F)c3n2)CCC12CN(c1ccnc(C(F)(F)F)c1)C2 [Cmpd 999] |
| < 10 µM | Cc1nn(CC(F)F)c2nc(N3CCC4(CN(c5ccnc(C(F)(F)F)c5)C4)C3=O)ncc12 [Cmpd 1000] |
| < 10 µM | Cc1nn(CC(F)F)c2nc(N3CCC4(CN(c5ccnc(C(F)(F)F)c5)C4)C3=O)cnc12 [Cmpd 1001] |
| < 10 µM | Cc1nn(C2COC2)c2nc(N3CCC4(CN(c5ccnc(C(F)(F)F)c5)C4)C3=O)cnc12 [Cmpd 1002] |

| EC50 | Compound |
| --- | --- |
| 10 to 50 µM | O=C1N(c2cnc3cnn(C4COC4)c3n2)CCC12CN(c1ccnc(C(F)(F)F)c1)C2 [Cmpd 1003] |
| 10 to 50 µM | O=C1N(c2ncc3cnn(C4COC4)c3n2)CCC12CN(c1ccnc(C(F)(F)F)c1)C2 [Cmpd 1004] |
| 10 to 50 µM | O=C1CC2(CN(c3ccnc(C(F)(F)F)c3)C2)CN1c1ncc2cnn(CC(F)F)c2n1 [Cmpd 1005] |
| 10 to 50 µM | Cc1nn(CC(F)F)c2nc(N3CC4(CC3=O)CN(c3ccnc(C(F)(F)F)c3)C4)ncc12 [Cmpd 1006] |
| < 10 µM | Cc1nn(CC(F)F)c2nc(N3CC4(CC3=O)CN(c3ccnc(C(F)(F)F)c3)C4)cnc12 [Cmpd 1007] |
| 10 to 50 µM | O=C1CC2(CN(c3ccnc(C(F)(F)F)c3)C2)CN1c1ncc2cnn(C3COC3)c2n1 [Cmpd 1008] |
| 10 to 50 µM | Cc1nn(C2COC2)c2nc(N3CC4(CC3=O)CN(c3ccnc(C(F)(F)F)c3)C4)ncc12 [Cmpd 1009] |
| 50 to 100 µM | O=C1N(c2cnc3cnn(CC(F)F)c3n2)CCC12CN(c1ccc(C(F)(F)F)nc1)C2 [Cmpd 1010] |
| 10 to 50 µM | O=C1N(c2cnc3cnn(CC(F)F)c3n2)CCC12CN(c1ccc(C(F)(F)F)cn1)C2 [Cmpd 1011] |
| 10 to 50 µM | O=C1N(c2cnc3cnn(CC(F)F)c3n2)CCC12CN(c1cnc(C(F)(F)F)nc1)C2 [Cmpd 1012] |
| < 10 µM | Cn1c(N2CCC3(CCN(c4ccnc(C(F)(F)F)c4)C3)CC2)nc2c(cnn2CC(F)F)c1=O [Cmpd 1013] |
| < 10 µM | Cn1c(N2CCC3(CCN(c4ccnc(C(F)(F)F)n4)C3)CC2)nc2c(cnn2CC(F)F)c1=O [Cmpd 1014] |
| 10 to 50 µM | Cn1c(N2CCC3(CCN(c4cnc(C(F)(F)F)nc4)C3)CC2)nc2c(cnn2CC(F)F)c1=O [Cmpd 1015] |
| < 10 µM | Cn1c(N2CCC3(CCN(c4cnc(C(F)(F)F)nc4)C3)CC2)nc2c(cnn2CC(F)(F)F)c1=O [Cmpd 1016] |
| 10 to 50 µM | Cn1c(N2CCC3(CN(c4ccnc(C(F)(F)F)c4)C3)C2)nc2c(cnn2CC(F)(F)F)c1=O [Cmpd 1017] |

— US20250034170A1, “SMALL MOLECULE MODULATORS OF GLUCOCEREBROSIDASE ACTIVITY AND USES THEREOF” (Vanqua Bio, Inc., priority 2021, published 2025)
